# Data as given in patent publication US20240376085A1 (Janssen Pharmaceutica NV, priority 2021, published 2024).
# Legend:
# [1] = system: IL-17A-induced G-CSF production in human normal keratinocyte (NHK); assay: NHK assay: IL-17A-induced G-CSF production in normal human keratinocytes; format: cell-based; conditions: Homo sapiens, Keratinocyte, 24 h, IL-17A 5 ng/mL, average if tested more than once
# Procedure, shortened: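 IC50 derives from G-CSF in supernatants, quantified by HTRF from a standard curve, with CellTiter-Glo viability compared to DMSO control. Before a 24 h, 37°C culture of normal human keratinocytes at 3000–4000 cells/well, compound dilutions were preincubated 1 h at rt with human IL-17A (5 ng/mL final), with 0.2% DMSO and 5% FBS.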
# IL-17A : IL-17RA binding [2] = biological target: T1, IL-17A : IL-17RA binding (Homo sapiens, UniProt Q16552, K93Q); assay: IL-17A(FLAG-tagged):IL-17RA(His-tagged) binding disruption Eu-HTRF assay, Protocol 1; conditions: FLAG-IL-17A 2.5 nM at 2x final concentration; average if tested more than once
# T1 construct: Name: IL-17A-Flag
# Procedure, shortened: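 IC50 came from a one-site competition fit of the acceptor/donor (665/620 nm) HTRF ratio. His-tagged IL-17RA, Eu-anti-FLAG and D2-anti-His were added after a 1 h rt compound preincubation with FLAG-tagged IL-17A dimer in PBS/0.01% Triton X-100, followed by 2 h at rt before reading.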
# IL-17A : IL-17RA binding [3] = biological target: T1, IL-17A : IL-17RA binding; assay: IL-17A(FLAG-tagged):IL-17RA(His-tagged) binding disruption Eu-HTRF assay, Protocol 2; conditions: FLAG-IL-17A 1 nM at 2x final concentration; average if tested more than once
# Text: An antibody directed against the FLAG tag of IL-17A (SEQ ID NO: 1) is labeled with the HTRF donor chromophore (Europium-cryptate). IL-17A is present as a dimer that is “locked into” this quaternary structure due to the formation of loop-spanning […] disulfide bridges. The construct of IL-17RA used in the assay excludes the […] portion of the receptor and is fused to a C-terminal 10×His tag (SEQ ID NO:2). An antibody directed against the His tag of the IL-17RA chimera is labeled with the HTRF acceptor chromophore (“D2”). The fluorescence-resonance energy transfer (FRET) depends on the vicinity of the donor chromophore to the acceptor, and interruption of the binding between the IL-17A and IL-17RA causes the reduction/loss of FRET. Therefore, this assay allows to evaluate the compound effect on the binding IL-17A and IL-17RA by monitoring the fluorescence intensity of donor vs acceptor. The assay was run using either Protocol 1 or Protocol 2 as described below.
# Protocol 2. 40 nl of 2-fold serial diluted compound solution for total 22 dilution points is added into each well of a 1536-well, white, low-volume, non-binding plate (Greiner #782904), then 2 μl of FLAG tagged IL-17A at 2× final concentration (1 nM) in solution of PBS+0.01% Triton-X100 is added to each well. The assay plate is briefly centrifuged then incubated for 1 h at rt. A mixed solution is prepared containing 2×5 nM 10HIS×IL-17RA, 2×2.5 nM Eu-anti-FLAG (CISBIO), 2×5 nM D2-anti-HIS (CISBIO) in PBS+0.01% Triton-X100+200 mM Potassium Fluoride (Sigma 60238) and 2 μl of mix is added to each well of the assay plate. The plate is briefly centrifuged then incubated for 2 h at rt. The HTRF intensities at the wavelength of donor (615 nm) and acceptor (665 nm) are measured using BMG Pherastar. The ratio between intensities at two wavelengths is calculated and plotted against the compound concentration and the data is fitted to a one-site competition model to yield IC50 of the compound.
# T1 sequence (Q16552 with tags, fused parts or gaps K93Q): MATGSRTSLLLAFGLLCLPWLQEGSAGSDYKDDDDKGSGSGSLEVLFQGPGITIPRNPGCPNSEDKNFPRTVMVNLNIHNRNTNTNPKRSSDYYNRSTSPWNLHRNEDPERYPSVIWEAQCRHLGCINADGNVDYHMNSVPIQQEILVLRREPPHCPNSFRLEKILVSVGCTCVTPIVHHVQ
IC50 (IL-17A : IL-17RA binding [2]) [nM],IC50 (IL-17A : IL-17RA binding [3]) [nM],SMILES,IC50 [1] [nM]
< 50,50 to 100,"Cc1nonc1C(=O)N[C@@H](CO[C@@H](C)C(F)(F)F)c1nc2ccc([C@H](NC(=O)CC3CC(F)(F)C3)C3CC3)cc2[nH]1 (relative stereo) [Example 151, N—((R*)-1-(6-((R)-Cyclopropyl(2-(3,3-difluorocyclobutyl)acetamido)methyl)-1H-benzo[d]imidazol-2-yl)-2-(((S*)-1,1,1-trifluoropropan-2-yl)oxy)ethyl)-4-methyl-1,2,5-oxadiazole-3-carboxamide]",> 100
> 100,> 100,"CC(C)n1nccc1C(=O)N[C@H](c1nc2ccc([C@@H](C)NC(=O)CCC(F)(F)F)cc2[nH]1)C1CCC(F)(F)CC1 [Example 122, N—((S)-(4,4-Difluorocyclohexyl)(6-((R)-1-(4,4,4-trifluorobutanamido)ethyl)-1H-benzo[d]imidazol-2-yl)methyl)-1-isopropyl-1H-pyrazole-5-carboxamide]",< 50
